# Experimental data published in patent publication US20230212222A1 (ANYGEN CO., LTD., priority 2020, published 2023).
# What was measured:
# [1] = tested on: C57BL6/J mice with high-fat feed (DIO); test: glucose tolerance test in mouse model of obesity disease (DIO); format: in vivo; settings: FIG. 89
# Protocol: (§1) In addition, the glucose tolerance level and insulin level according to HKFY-34 treatment in a mouse model of obesity disease were analyzed (FIGS. 89 and 90).
# (§2) Specifically, in the glucose tolerance level and insulin level analysis experiment, the experiment was performed by changing the mouse model of diabetes mellitus disease into a mouse model of obesity disease (DIO), in which obesity was induced by providing male C57BL6/J mice (6 to 7-week-old, Central Lab. Animal Inc.) with a high-fat feed (60% fat chow) for 5-6 weeks.
# [2] = tested on: adipose tissue (white adipose tissue, WAT); test: lipolytic ability (secreted glycerol) in adipose tissue (WAT); format: cell-based, mice
# Protocol: In addition, lipolytic ability according to the HKFY-34 treatment by concentration (100 nM, 500 nM, […] (FIG. 84). When the signal of lipolysis is transmitted, lipid droplet glycerol and free fatty acid in adipocytes are secreted as final products and come out of the cell. At this time, the degree of lipolysis can be confirmed by quantifying the secreted glycerol. Isoproterenol, a positive control group, is an agonist of β-adrenergic receptors and mainly promotes lipolytic ability in adipocytes.
# [3] = tested on: pERK and pPKA in 3T3-L1 cells; test: pERK and pPKA expression by western blot in 3T3-L1 cells; format: cell-based; settings: FIG. 85
# Protocol: In order to analyze the mechanism of lipolytic ability according to the HKFY derivative treatment in 3T3-L1 cells and WAT cells, the expression levels of pERK and pPKA were analyzed (FIGS. 85 and 86).
# Specifically, protein was purified from 3T3L-1 cells (Korea Cell Line Bank) and WAT (tissue culture using mice purchased from Central Lab. Animal Inc.) treated with the HKFY derivatives, and then each antibody for pERK, ERK, pPKA, and PKA expressed in mice was used, and the expression level of each protein due to the derivatives was measured through western blot.
# GHSR = target: T1, GHSR (Homo sapiens, UniProt Q92847); test: luciferase assay system, ghrelin receptor family selectivity; format: cell-based; settings: compared with intrinsic ligand, FIG. 74
# T1 construct: expressed in transfected cells
# Protocol: (§3) In addition, through the activity test of the HKFY derivatives for similar receptors to GPR39, ghrelin receptor family (ghrelin receptor (GHSR), motilin receptor (MTLR), neurotensin receptor (NTSR1 & NTSR2), neuromedin U receptor (NMU1 & NMU2), TRH (thyrotropin releasing hormone) receptor (TRHR)), the selectivity and specificity for the GPR39 receptor were confirmed.
# (§4) Specifically, the degree of activity between the intrinsic ligand and HKFY-34 for each receptor was analyzed using a luciferase assay system (FIG. 74).
# NMU1 = target: T2, NMU1 (Homo sapiens, UniProt Q9HB89); test: as above; format: cell-based; settings: compared with intrinsic ligand, FIG. 74
# T2 construct: expressed in transfected cells
# Protocol: as §3, §4
# NTSR2 = target: T3, NTSR2 (Homo sapiens, UniProt O95665); test: as above; format: cell-based; settings: compared with intrinsic ligand, FIG. 74
# T3 construct: expressed in transfected cells
# Protocol: as §3, §4
# NMU2 = target: T4, NMU2 (Homo sapiens, UniProt Q9GZQ4); test: as above; format: cell-based; settings: compared with intrinsic ligand, FIG. 74
# T4 construct: expressed in transfected cells
# Protocol: as §3, §4
# NTSR1 = target: T5, NTSR1 (Homo sapiens, UniProt P30989); test: as above; format: cell-based; settings: compared with intrinsic ligand, FIG. 74
# T5 construct: expressed in transfected cells
# Protocol: as §3, §4
# MTLR = target: T6, MTLR (Homo sapiens, UniProt O43193); test: as above; format: cell-based; settings: compared with intrinsic ligand, FIG. 74
# T6 construct: expressed in transfected cells
# Protocol: as §3, §4
# TRHR = target: T7, TRHR (Homo sapiens, UniProt P34981); test: as above; format: cell-based; settings: compared with intrinsic ligand, FIG. 74
# T7 construct: expressed in transfected cells
# Protocol: as §3, §4
# GPR39 KO mice = test: glucose tolerance test in GPR39 KO mouse model induced by a high-fat diet; format: in vivo; settings: 16, 17 and 18-week-old GPR39 KO mice, high-fat feed, 0.5, 1, 5 and 10 mg/kg subcutaneously
# Protocol: In addition, the glucose tolerance level in the GPR39 KO mouse model induced by a high-fat diet according to the HKFY derivative treatment was analyzed (FIG. 91).
# Specifically, obesity was induced by providing male GPR39 KO mice (6 to 7-week-old, Central Lab. Animal Inc.) with a high-fat feed (60% fat chow) for 5-6 weeks. HKFY-34 was administered subcutaneously at a concentration of 0.5, 1, 5 and 10 mg/kg, respectively, to the 16, 17 or 18-week-old GPR39 KO mice, in which obesity was induced. After 30 minutes, glucose (1.5 g/kg) was intraperitoneally administered. After 0, 15, 30, 45, 60, 90, 120 and 180 minutes, blood was collected from the tail of the mice, and the blood glucose was measured with a blood glucose meter (acc-check, Roche, Germany) to analyze the glucose tolerance.
# GPR39 = target: T8, GPR39 (Homo sapiens, UniProt O43194); test: calcium influx assay system (aequorin) in CV-1 cells; format: cell-based; design: host or cells: CV-1 fibroblast cell line, lipofectamine transfection; settings: CV-1 cells transfected with human GPR39, Gαq, 6 hours
# T8 sequence (O43194 1-453): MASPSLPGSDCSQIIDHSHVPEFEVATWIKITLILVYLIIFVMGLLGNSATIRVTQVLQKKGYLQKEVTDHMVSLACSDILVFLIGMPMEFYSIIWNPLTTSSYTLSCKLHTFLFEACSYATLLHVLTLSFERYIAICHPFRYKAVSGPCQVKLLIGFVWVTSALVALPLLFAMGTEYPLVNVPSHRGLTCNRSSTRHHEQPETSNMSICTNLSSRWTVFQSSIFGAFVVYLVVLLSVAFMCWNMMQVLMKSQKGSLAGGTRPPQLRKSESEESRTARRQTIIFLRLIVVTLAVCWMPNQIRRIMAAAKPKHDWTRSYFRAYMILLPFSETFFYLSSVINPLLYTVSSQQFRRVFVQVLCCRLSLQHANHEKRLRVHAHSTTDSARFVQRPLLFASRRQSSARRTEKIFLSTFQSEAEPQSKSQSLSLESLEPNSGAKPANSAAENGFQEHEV
# [4] = tested on: C57BL6/J mice with high-fat feed (DIO); test: insulin level in mouse model of obesity disease (DIO); format: in vivo; settings: FIG. 90
# Protocol: as §1, §2
# db/db mice = test: blood insulin level in mouse model of diabetes mellitus disease (mouse ELISA); format: in vivo
# Protocol: In addition, the blood insulin level was analyzed simultaneously with the glucose tolerance test for the mouse model of diabetes mellitus disease (FIG. 88).
# Specifically, after 0, 15, 30, 60, 90, 120 and 180 minutes, blood was collected from the orbital veins of mice, and the insulin level in plasma was analyzed using mouse ELISA.
# T4 sequence (Q9GZQ4 whole entry, species assumed): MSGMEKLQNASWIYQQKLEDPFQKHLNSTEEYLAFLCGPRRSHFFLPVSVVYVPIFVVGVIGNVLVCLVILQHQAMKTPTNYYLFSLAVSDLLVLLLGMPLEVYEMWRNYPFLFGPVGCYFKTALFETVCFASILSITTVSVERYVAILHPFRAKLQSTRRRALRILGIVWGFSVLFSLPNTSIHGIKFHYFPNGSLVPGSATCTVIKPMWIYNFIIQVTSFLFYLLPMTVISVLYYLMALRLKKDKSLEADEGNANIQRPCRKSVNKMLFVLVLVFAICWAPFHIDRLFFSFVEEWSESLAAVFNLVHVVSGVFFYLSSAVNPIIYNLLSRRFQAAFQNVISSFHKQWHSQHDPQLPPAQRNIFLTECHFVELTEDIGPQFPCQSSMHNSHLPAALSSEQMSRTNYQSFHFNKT
# T1 sequence (Q92847 whole entry, species assumed): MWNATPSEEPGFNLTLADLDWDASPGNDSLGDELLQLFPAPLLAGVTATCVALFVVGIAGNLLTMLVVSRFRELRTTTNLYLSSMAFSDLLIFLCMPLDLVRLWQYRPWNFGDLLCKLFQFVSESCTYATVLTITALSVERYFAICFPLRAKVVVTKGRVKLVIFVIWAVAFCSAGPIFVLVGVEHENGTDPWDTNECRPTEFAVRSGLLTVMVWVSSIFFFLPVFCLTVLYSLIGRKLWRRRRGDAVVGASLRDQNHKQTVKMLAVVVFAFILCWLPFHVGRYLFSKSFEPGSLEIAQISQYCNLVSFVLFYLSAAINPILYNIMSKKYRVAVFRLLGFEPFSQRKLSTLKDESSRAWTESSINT
# T6 sequence (O43193 whole entry, species assumed): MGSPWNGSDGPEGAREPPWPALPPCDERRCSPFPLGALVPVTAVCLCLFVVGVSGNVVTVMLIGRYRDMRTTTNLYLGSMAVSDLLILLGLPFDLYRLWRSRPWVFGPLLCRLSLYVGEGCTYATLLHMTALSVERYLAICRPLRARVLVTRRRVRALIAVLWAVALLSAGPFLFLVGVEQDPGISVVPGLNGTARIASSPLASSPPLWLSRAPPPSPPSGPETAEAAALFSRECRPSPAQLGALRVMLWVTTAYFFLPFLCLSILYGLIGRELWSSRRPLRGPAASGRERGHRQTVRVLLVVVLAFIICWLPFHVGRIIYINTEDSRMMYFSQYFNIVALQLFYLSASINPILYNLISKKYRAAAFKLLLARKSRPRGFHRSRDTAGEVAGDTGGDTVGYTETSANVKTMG
# T2 sequence (Q9HB89 whole entry): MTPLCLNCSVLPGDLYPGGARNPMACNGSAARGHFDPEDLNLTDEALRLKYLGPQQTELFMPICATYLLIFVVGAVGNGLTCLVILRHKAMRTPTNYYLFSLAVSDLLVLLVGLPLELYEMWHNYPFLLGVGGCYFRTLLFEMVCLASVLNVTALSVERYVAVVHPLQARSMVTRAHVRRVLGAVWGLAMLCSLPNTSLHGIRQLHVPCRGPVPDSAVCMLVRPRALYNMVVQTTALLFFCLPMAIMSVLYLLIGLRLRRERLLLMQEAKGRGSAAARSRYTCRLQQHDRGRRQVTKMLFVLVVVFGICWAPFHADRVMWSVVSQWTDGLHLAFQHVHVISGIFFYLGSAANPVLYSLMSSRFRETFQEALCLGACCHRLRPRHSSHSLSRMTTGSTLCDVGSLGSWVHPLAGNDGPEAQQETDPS
# T7 sequence (P34981 whole entry, species assumed): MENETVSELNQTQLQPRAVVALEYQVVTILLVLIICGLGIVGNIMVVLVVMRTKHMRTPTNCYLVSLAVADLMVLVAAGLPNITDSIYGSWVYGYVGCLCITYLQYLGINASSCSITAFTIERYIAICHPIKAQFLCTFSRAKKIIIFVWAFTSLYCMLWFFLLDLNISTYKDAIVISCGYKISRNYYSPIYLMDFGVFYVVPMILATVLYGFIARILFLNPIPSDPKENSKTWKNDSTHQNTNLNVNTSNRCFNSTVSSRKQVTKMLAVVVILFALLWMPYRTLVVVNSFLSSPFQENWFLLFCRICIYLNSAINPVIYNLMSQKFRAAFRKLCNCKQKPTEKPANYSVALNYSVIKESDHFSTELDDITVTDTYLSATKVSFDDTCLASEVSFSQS
# T5 sequence (P30989 whole entry, species assumed): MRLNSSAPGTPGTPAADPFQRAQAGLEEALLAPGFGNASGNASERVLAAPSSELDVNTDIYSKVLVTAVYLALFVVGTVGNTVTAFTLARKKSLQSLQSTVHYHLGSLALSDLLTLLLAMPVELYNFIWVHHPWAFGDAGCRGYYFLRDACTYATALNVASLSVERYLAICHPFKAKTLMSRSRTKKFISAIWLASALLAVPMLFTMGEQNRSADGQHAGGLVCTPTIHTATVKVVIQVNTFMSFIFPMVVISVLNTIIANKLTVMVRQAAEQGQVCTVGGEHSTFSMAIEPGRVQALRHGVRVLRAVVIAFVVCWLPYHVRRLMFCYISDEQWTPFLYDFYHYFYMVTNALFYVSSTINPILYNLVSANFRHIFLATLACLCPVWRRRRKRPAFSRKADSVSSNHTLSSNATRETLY
# T3 sequence (O95665 whole entry, species assumed): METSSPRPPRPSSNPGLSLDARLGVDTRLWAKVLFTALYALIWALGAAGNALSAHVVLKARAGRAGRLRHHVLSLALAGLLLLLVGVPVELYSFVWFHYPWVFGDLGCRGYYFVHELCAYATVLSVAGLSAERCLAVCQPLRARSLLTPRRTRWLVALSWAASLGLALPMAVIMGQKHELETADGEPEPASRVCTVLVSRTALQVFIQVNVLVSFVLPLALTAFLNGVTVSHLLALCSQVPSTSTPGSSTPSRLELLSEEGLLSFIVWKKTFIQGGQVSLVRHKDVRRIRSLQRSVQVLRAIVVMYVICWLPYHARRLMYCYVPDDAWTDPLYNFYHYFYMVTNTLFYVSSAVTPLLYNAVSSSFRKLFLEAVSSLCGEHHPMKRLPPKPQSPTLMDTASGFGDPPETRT
structure (smiles),measurement,setting,value
"CCCCCCCC(=O)NCCCC[C@H](NC(=O)[C@@H](N)Cc1cn(C(c2ccccc2)c2ccccc2)cn1)C(=O)N[C@H](Cc1ccc(C)cc1)C(=O)N[C@@H](Cc1ccc(O)cc1)C(=O)O [HKFY-34, ((R)-2-((S)-2-((S)-2-amino-3-(1-benzhydryl-1H-imidazol-4-yl)propanamido)-6-octanamidohexanamido)-3-(p-tolyl)propanoyl)-L-tyrosine]",glucose tolerance,[1],glucose tolerance in a concentration dependent manner
same,lipolytic ability,[2]; HKFY-34 concentration 10 μM or higher,significantly increased
same,lipolytic ability,"[2]; by concentration, FIG. 84",increased in a concentration dependent manner
same,expression of pERK compared to ERK,[3],increased
same,expression of pPKA compared to PKA,[3],increased
same,activity for GHSR,GHSR,very low
same,activity for NMU1,NMU1,very low
same,activity for NTSR2,NTSR2,very low
same,activity for NMU2,NMU2,very low
same,activity for NTSR1,NTSR1,very low
same,activity for MTLR,MTLR,very low
same,activity for TRHR,TRHR,very low
same,glucose tolerance,GPR39 KO mice,significant glucose tolerance was not observed
same,Ca2+ influx assay ECmax (-fold induction over basal),GPR39,2.4 ± 4.59 -fold induction over basal
same,EC50,GPR39; read-out: Ca2+ influx assay EC50,2.7 ± 0.5 nM
same,insulin secretion level,[4],increased
same,insulin secretion (plasma insulin level),"db/db mice; db/db mice, 0.5, 1, 5 and 10 mg/kg subcutaneously",increased in a concentration dependent manner
same,insulin secretion level,"db/db mice; db/db mice, 5 and 10 mg/kg",significantly increased
